The subject of this assay is Male Wistar rats. Briefly: Penile erection test (penile erection score) in conscious rats. The class given is in vivo. The settings on record: after local injection (animal studies). As to the method: Male Wistar rats aged from 8 to 10 weeks old (250 - 320 g) were used in these studies. Animals were housed in groups of five, provided with food and water ad libitum and kept in controlled laboratory conditions with the temperature maintained at 22 ± 2 °C and light in 12 h cycles (on at 06:00 h and off at 18:00 h). Experiments were carried out in a soundproof and air-regulated experimental room. The number of rats ranged from 5 to 34 per group in each individual experiment.
Drugs used for treatments were: Compound 1, Compound 2, Compound 3 and Alprostadil.
Male Wistar rats received local injections (intrapenis injections) or topical administrations of test substances and penile erection was quantified (penile erection score) from 15 to 30 min after local drug injection and from 5 to 60 min after topical drug administration. The magnitude of penile erection is determined by penile erection score. The Baseline was determined based on vehicle injection. […]
For evaluating the penile erection after both types of administration, a qualitative score method was used, where 0 = no effect, 1 = slight effect, 2 = some effect without exposure of the penis, and 3 = clear effect with exposure of the penis. The reading times for the local injection were 15 and 30 minutes, and for the topical application were 5, 15, 30, and 60 minutes.
Data are expressed as Mean±SEM. […]

Here are results for 2 molecules from patent publication EP2676954A1, “Heterocyclyl-substituted-phenyl derivatives as vasodilators” (Laboratorios del Dr. Esteve S.A., priority 2012, dated 2013).

For `Cc1nn(C)c(C)c1-c1ccc(O)c(CCN(C)C)c1` [Compound 1, 2-(2-(Dimethylamino)ethyl)-4-(1,3,5-trimethyl-1H-pyrazol-4-yl)phenol], the penile erection result is given as “cause penile erection in the absence of sexual stimulation”. As to `Cc1nn(C)c(C)c1-c1cccc(CCN(C)C)c1` [Compound 2, Dimethyl-{2-[3-(1,3,5-trimethyl-1H-pyrazol-4-yl)-phenyl]-ethyl}-amine], the penile erection entry is “cause penile erection in the absence of sexual stimulation”.
